This assay has as its target T1, CRY1 (Homo sapiens, UniProt Q16526).
T1 construct: To evaluate the effect of FORMULA I on the endogenous protein and mRNA level of clock genes; endogenous in cells; host or cells: U2-OS
T1 sequence (Q16526 1-586): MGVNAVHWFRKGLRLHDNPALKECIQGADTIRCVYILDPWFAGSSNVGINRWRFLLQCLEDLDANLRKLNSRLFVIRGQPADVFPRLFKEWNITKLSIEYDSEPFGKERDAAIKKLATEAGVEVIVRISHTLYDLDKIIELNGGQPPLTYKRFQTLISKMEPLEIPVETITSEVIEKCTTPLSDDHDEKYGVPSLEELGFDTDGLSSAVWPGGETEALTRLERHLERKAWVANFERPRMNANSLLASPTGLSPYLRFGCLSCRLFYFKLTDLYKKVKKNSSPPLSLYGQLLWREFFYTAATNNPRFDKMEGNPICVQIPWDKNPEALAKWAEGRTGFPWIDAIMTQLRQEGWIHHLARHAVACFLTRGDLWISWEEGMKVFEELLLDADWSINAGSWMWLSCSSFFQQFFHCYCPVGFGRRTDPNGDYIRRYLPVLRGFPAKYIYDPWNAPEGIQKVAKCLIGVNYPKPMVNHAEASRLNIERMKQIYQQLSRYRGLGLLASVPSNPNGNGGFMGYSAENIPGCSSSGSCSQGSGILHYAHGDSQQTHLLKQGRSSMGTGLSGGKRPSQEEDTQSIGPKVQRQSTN
The assay can be described thus: Protein immunoblot, synchronized U2-OS cells, CRY1. Format: cell-based. As to conditions: 10 μM, 80-92 h. As for the experimental part: FIGS. 3A-3G are an illustration of FORMULA I decreased CRY1 level in synchronized U2-OS cells. Confluent U2-OS cells were synchronized by 2 h treatment with dexamethasone ([…]) and medium replaced with fresh medium containing FORMULA I or solvent (DMSO final 0.5%). Cells were harvested at indicated time points. FIGS. 3A-3B show lysed cells were analyzed via protein immunoblot technique. […] CRY levels in DMSO control divided by that of in FORMULA I treated samples were reported (mean±SEM, n=4). FIGS. 3C-3G show cells were subjected to reverse-transcription-quantitative polymerase chain reaction (RT-qPCR). […] Expression level of genes was normalized according to the expression level of that gene at 72ndh. (Data represent the mean±SEM, n=3 with duplicates ***: p<0.001 **: p<0.005, *: p<0.05 versus DMSO control by two-way ANOVA).
Cells were lysed in RIPA buffer (50 mM Tris, 150 mM NaCl, 1% Triton-X, 0.1% SDS) with fresh Protease inhibitor cocktail (PIC). After centrifugation at 13000 rpm for 15 minutes at 4° C., supernatant was used to determine the protein amount using Pierce Protein Assay (Thermo Scientific) according to the manufacturer's instruction. Mice liver samples were homogenized and lysed with Dounce homogenizer and RIPA buffer. […] ECL buffer system (Advansta WesternBright) was used to visualize HRP chemi-luminescence via BioRad ChemiDoc Touch visualizer. […]
Background: Immunoblotting shows a protein as a band on a membrane.

Our source for the CRY1 protein level values is patent publication US20230104487A1, “11-(4-CHLOROPHENYL)-4-(2,3-DIHYDRO-1H-INDOLE-1-CARBONYL)-3,11-DIMETHYL-5,10,DIOXATRICYCLO[7.4.0.0,2,6,]TRIDECA-1,3,6,8-TETRAEN-13-ONE AND DERIVATIVES AS DESTABILIZER OF CRY1 FOR THE TREATMENT OF CIRCADIAN RHYTHM ASSOCIATED DISEASES AND DISORDERS” (KOC UNIVERSITESI, priority 2019, published 2023).

Structures are written as SMILES.

As for `Cc1c(C(=O)N2CCc3ccccc32)oc2ccc3c(c12)C(=O)CC(C)(c1ccc(Cl)cc1)O3` (stereo not shown) [FORMULA I, 11-(4-chlorophenyl)-4-(2,3-dihydro-1H-indole-1-carbonyl)-3,11-dimethyl-5,10,dioxatricyclo[7.4.0.0,2,6,]trideca-1,3,6,8-tetraen-13-one], the CRY1 protein level entry was “decreased the protein level of CRY1”.
